Laboratory results taken from the supplement of paper PMC10307832.

Legend:
Assay in all cases: relative viability (nuclei count vs DMSO), 5 days (fraction); higher = more cells survive
Dinaciclib + Phenformin = compound: CCc1cnn2c(NCc3ccc[n+]([O-])c3)cc(N3CCCC[C@H]3CCO)nc12 [Dinaciclib] + N=C(N)NC(=N)NCCc1ccccc1 [Phenformin] (partner 250 µM)
Summary of the method: (§1)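 Lung cancer cell lines, seeded in 1536-well plates, were treated the following day by pin tool with a single drug or with five library-drug doses (not always all listed) in √10 steps on top of a fixed anchor-drug dose. Cells were fixed and nuclei stained in one step after 5 days, and nuclei were counted. Relative viability is the nuclei count for treated wells divided by that for vehicle wells, reported as medians of duplicate plates.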

Dinaciclib + Crizotinib = compound: CCc1cnn2c(NCc3ccc[n+]([O-])c3)cc(N3CCCC[C@H]3CCO)nc12 [Dinaciclib] + C[C@@H](Oc1cc(-c2cnn(C3CCNCC3)c2)cnc1N)c1c(Cl)ccc(F)c1Cl [Crizotinib] (partner 1 µM)
Summary of the method: as §1

Dinaciclib + Foretinib = compound: CCc1cnn2c(NCc3ccc[n+]([O-])c3)cc(N3CCCC[C@H]3CCO)nc12 [Dinaciclib] + COc1cc2c(Oc3ccc(NC(=O)C4(C(=O)Nc5ccc(F)cc5)CC4)cc3F)ccnc2cc1OCCCN1CCOCC1 [Foretinib] (partner 0.25 µM)
Summary of the method: as §1

Dinaciclib + Linsitinib = compound: CCc1cnn2c(NCc3ccc[n+]([O-])c3)cc(N3CCCC[C@H]3CCO)nc12 [Dinaciclib] + C[C@]1(O)C[C@@H](c2nc(-c3ccc4ccc(-c5ccccc5)nc4c3)c3c(N)nccn32)C1 [Linsitinib] (partner 1 µM)
Summary of the method: as §1

Dinaciclib = compound: CCc1cnn2c(NCc3ccc[n+]([O-])c3)cc(N3CCCC[C@H]3CCO)nc12 [Dinaciclib]
Summary of the method: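 Only plates meeting two conditions passed: control CV below 25% and at least one doubling. Lung cancer cell lines, kept overnight at 37 °C in 1536-well plates, were pinned with five library-drug doses (not always all listed) √10 apart on vehicle-anchored plates and grown 5 days without medium change. A one-step fix, permeabilisation and Hoechst stain preceded 4× imaging and MetaXpress nuclear counting. Viability equals treated-well nuclei divided by vehicle-well nuclei, as the median over plates.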

Cell Line | relative viability (Dinaciclib + Phenformin; first compound 0.009487 µM) | relative viability (Dinaciclib + Phenformin; first compound 0.03 µM) | relative viability (Dinaciclib + Phenformin; first compound 0.09487 µM) | relative viability (Dinaciclib + Phenformin; first compound 0.3 µM) | relative viability (Dinaciclib + Crizotinib; first compound 0.009487 µM) | relative viability (Dinaciclib + Crizotinib; first compound 0.03 µM) | relative viability (Dinaciclib + Crizotinib; first compound 0.09487 µM) | relative viability (Dinaciclib + Crizotinib; first compound 0.3 µM) | relative viability (Dinaciclib + Foretinib; first compound 0.009487 µM) | relative viability (Dinaciclib + Foretinib; first compound 0.03 µM) | relative viability (Dinaciclib + Foretinib; first compound 0.09487 µM) | relative viability (Dinaciclib + Foretinib; first compound 0.3 µM) | relative viability (Dinaciclib + Linsitinib; first compound 0.009487 µM) | relative viability (Dinaciclib + Linsitinib; first compound 0.03 µM) | relative viability (Dinaciclib + Linsitinib; first compound 0.09487 µM) | relative viability (Dinaciclib + Linsitinib; first compound 0.3 µM) | relative viability (Dinaciclib; 0.009487 µM) | relative viability (Dinaciclib; 0.03 µM) | relative viability (Dinaciclib; 0.09487 µM) | relative viability (Dinaciclib; 0.3 µM)
NCI-H1651 | 0.26 | 0.219 | 0.0746 | 0.0547 | 0.941 | 0.685 | 0.188 | 0.0849 | 0.858 | 0.683 | 0.0694 | 0.0598 | 0.775 | 0.307 | 0.0746 | 0.0549 | 0.969 | 0.764 | 0.186 | 0.0892
201T | 0.418 | 0.415 | 0.257 | 0.238 | 0.938 | 0.739 | 0.265 | 0.313 | 1.19 | 0.174 | 0.171 | 0.15 | 1.11 | 1 | 0.362 | 0.368 | 1.09 | 0.632 | 0.339 | 0.236
NCI-H3122 | 0.172 | 0.101 | 0.103 | 0.106 | 0.253 | 0.127 | 0.145 | 0.13 | 1.02 | 0.131 | 0.0904 | 0.0928 | 0.932 | 0.147 | 0.145 | 0.147 | 0.979 | 0.182 | 0.115 | 0.102
A549 | 0.174 | 0.0204 | 0.035 | 0.0274 | 0.724 | 0.365 | 0.0408 | 0.05 | 0.952 | 0.0544 | 0.0214 | 0.0246 | 0.561 | 0.165 | 0.0454 | 0.0453 | 0.968 | 0.32 | 0.0405 | 0.046
NCI-H727 | 0.648 | 0.284 | 0.256 | 0.21 | 0.534 | 0.171 | 0.174 | 0.183 | 1.05 | 0.283 | 0.259 | 0.249 | 0.268 | 0.193 | 0.0908 | 0.158 | 0.975 | 0.411 | 0.222 | 0.245
NCI-H441 | 0.688 | 0.184 | 0.164 | 0.136 | 0.595 | 0.134 | 0.0914 | 0.101 | 0.789 | 0.204 | 0.174 | 0.222 | 0.811 | 0.129 | 0.115 | 0.113 | 1.13 | 0.162 | 0.146 | 0.158
HOP-62 | 0.54 | 0.299 | 0.0816 | 0.0886 | 0.841 | 0.236 | 0.0602 | 0.0489 | 1.11 | 0.376 | 0.0923 | 0.0743 | 1.01 | 0.203 | 0.0716 | 0.0565 | 0.957 | 0.474 | 0.0898 | 0.0943
RERF-LC-KJ | 0.35 | 0.223 | 0.224 | 0.185 | 0.885 | 0.179 | 0.131 | 0.122 | 0.902 | 0.635 | 0.15 | 0.101 | 0.924 | 0.193 | 0.147 | 0.099 | 1.01 | 0.29 | 0.176 | 0.156
